This is an account of results in ChEMBL document CHEMBL1159314, “Eupha-7,9(11),24-trien-3beta-ol ("antiquol C") and other triterpenes from Euphorbia antiquorum latex and their inhibitory effects on Epstein-Barr virus activation” (J Nat Prod, 2002).

Common to all, as to assay type: cell-based
Data set [1] concerns Raji. Kind of data set: Inhibition of TPA-induced EBV-early antigen activation in human Raji cells at 100 molar ratio after 48 hrs relative to TPA. Details: scale not given: the % may be the effect or the level left. The note with it: human gammaherpesvirus 4.
The test system of data set [2] is Raji. Kind of data set: Inhibition of TPA-induced EBV-early antigen activation in human Raji cells at 500 molar ratio after 48 hrs relative to TPA. Details: scale not given: the % may be the effect or the level left. The note with it: human gammaherpesvirus 4.
Data set [3] deals with Raji. Kind of data set: Inhibition of TPA-induced EBV-early antigen activation in human Raji cells at 10 molar ratio after 48 hrs relative to TPA. Further details: scale not given: the % may be the effect or the level left. The note with it: human gammaherpesvirus 4.
Data set [4] is described as follows: Cytotoxicity against human Raji cells assessed as cell viability at 1000 molar ratio after 48 hrs by trypan blue assay. The note with it: read-out: Activity.
Data set [5] deals with Raji. Put plainly: Inhibition of TPA-induced EBV-early antigen activation in human Raji cells at 1000 molar ratio after 48 hrs relative to TPA. Details: scale not given: the % may be the effect or the level left. The note with it: human gammaherpesvirus 4.

Regarding `CC(C)=CCC[C@]1(C)CC[C@]2(C)C3=CC[C@H]4C(C)(C)[C@@H](O)CC[C@]4(C)[C@H]3CC[C@@]2(C)C1`, the Activity in the data set on Raji [1] was 79.4%; with Raji [2], 33.8%; with Raji [3] it was 97.2%; in the data set with Raji [5] it was 2.2%. Also, the viability at 48 h, 1000 molar ratio in data set [4] was 70%.
On to `CC1=C(/C=C/C(C)=C/C=C/C(C)=C/C=C/C=C(C)/C=C/C=C(C)/C=C/C2=C(C)CCCC2(C)C)C(C)(C)CCC1`, for which the Activity in the data set on Raji [3] came to 100%; in the data set with Raji [5], 8.6%.
Regarding `CC(C)=CCC[C@@H](C)[C@@H]1CC[C@]2(C)C3=CC[C@H]4C(C)(C)[C@@H](O)CC[C@]4(C)C3=CC[C@@]12C` [ANTIQUOL C], the Activity was found to be 75% with Raji [1], 28.2% with Raji [2], 92.8% in the data set on Raji [3] and 0% with Raji [5]. For the same compound, the viability at 48 h, 1000 molar ratio in data set [4] was found to be 70%.
Turning to `CC(C)=CCC/C(C)=C/CC/C(C)=C/CC/C=C(\C)CC[C@@H]1C(C)=CC[C@H](O)C1(C)C` [CAMELLIOL C], the Activity in the data set on Raji [1] was 86.3%; in the data set on Raji [2], 51.5%; in the data set with Raji [3], 100%; in the data set with Raji [5] it was 20.1%. In addition, the viability at 48 h, 1000 molar ratio in data set [4] turned out to be 70%.
With `CC(C)=CCC[C@@H](C)[C@@H]1CC[C@]2(C)C3=C(CC[C@@]12C)[C@@]1(C)CC[C@H](O)C(C)(C)[C@@H]1CC3` [EUPHOL], the Activity with Raji [1] was 75.7%; with Raji [2], 29.8%; with Raji [3], 93.5%; in the data set on Raji [5] it was 0%. Also, the viability at 48 h, 1000 molar ratio in data set [4] is 70%.
The corresponding values for `C=C(CC[C@H](C)[C@@H]1CC[C@]2(C)C3=C(CC[C@@]12C)[C@@]1(C)CC[C@H](O)C(C)(C)[C@@H]1CC3)C(C)C` [EUPHORBOL] are 77.9%, 32.6%, 95.8%, 0% and 70%.
For the compound `CC(C)=CCC[C@@H](C)[C@@H]1CC[C@]2(C)[C@H]3CCC(=C(C)C)[C@@H](CCCO)[C@]3(C)CC[C@@]12C` [ISOHELIANOL], the Activity in the data set with Raji [1] is 72.4%; in the data set on Raji [2], 25.8%; in the data set on Raji [3], 95.7%; in the data set with Raji [5] it was 0%. Moreover, the viability at 48 h, 1000 molar ratio in data set [4] was found to be 70%.
